Reference: patent US10336707B2, “Heterocyclic derivatives modulating activity of certain protein kinases” (EUDENDRON S.R.L., priority 2014, dated 2019)
pIC50: −log10 of the molar value. Read-outs that look alike come from different tables or passages of the source.

Key:
[1] = system: NPM/ALK positive SUPM2; experiment: Tritiated thymidine uptake cell proliferation assay, SUPM2; format: cell-based; details: SUP-M2; cell line SUPM2; read-out: IC50 of cellular proliferation, SUPM2
Procedure: (§1) Method: Tritiated Thymidine Uptake Cell Proliferation Assay
(§2) The following procedure was used with parent untransformed BaF3 cells, BaF3 cells transformed with the oncogenic fusion protein NPM/ALK, NPM/ALK positive SUDHL-1 cells, NPM/ALK positive SUPM2, ALK-negative HL60 cells, NPM/ALK positive KARPAS-299 cells. The parent untransformed BaF3 cells or Alk-negative HL60 cells are used as controls. Cells were seeded in U-bottomed 96-well plates at 10000 cells/well in a volume of 100 μl in supplemented medium. In the case of the parent untransformed BaF3 cells, the medium was supplemented with IL-3. Serial dilutions of inhibitors were added to the appropriate wells and volumes adjusted to 200 μl. Controls were treated with the equivalent volume of vehicle, DMSO, alone. Plates were incubated at 37° C. for 72 h. 3[H]-thymidine (1 μCi/well) was added for the last 16 h of incubation. Cells were harvested on to paper filters and 3[H]-thymidine incorporation was measured using a scintillation counter (1430 MicroBeta, Wallac, Turku, Finland). The 50% inhibitory concentration (IC50) was defined as the concentration of inhibitor, expressed in nanomolar units, that gave a 50% decrease in 3[H]-thymidine uptake compared with controls.
In Table 4 are reported the IC50 of cellular proliferation assays of example 3 versus ALK positive, mutated and negative cell lines.

[2] = target: T1, ALK wild-type (GST-His-tag) (Homo sapiens, UniProt Q9UM73); experiment: Radiometric protein kinase assay (33PanQuinase Activity Assay), ALK wild-type; format: biochemical; details: ATP 0.3 μM
T1 construct: either as full-length or enzymatically active fragments; purchased ProQinase GmbH (Freiburg, Germany)
T1 sequence (Q9UM73 19-1620): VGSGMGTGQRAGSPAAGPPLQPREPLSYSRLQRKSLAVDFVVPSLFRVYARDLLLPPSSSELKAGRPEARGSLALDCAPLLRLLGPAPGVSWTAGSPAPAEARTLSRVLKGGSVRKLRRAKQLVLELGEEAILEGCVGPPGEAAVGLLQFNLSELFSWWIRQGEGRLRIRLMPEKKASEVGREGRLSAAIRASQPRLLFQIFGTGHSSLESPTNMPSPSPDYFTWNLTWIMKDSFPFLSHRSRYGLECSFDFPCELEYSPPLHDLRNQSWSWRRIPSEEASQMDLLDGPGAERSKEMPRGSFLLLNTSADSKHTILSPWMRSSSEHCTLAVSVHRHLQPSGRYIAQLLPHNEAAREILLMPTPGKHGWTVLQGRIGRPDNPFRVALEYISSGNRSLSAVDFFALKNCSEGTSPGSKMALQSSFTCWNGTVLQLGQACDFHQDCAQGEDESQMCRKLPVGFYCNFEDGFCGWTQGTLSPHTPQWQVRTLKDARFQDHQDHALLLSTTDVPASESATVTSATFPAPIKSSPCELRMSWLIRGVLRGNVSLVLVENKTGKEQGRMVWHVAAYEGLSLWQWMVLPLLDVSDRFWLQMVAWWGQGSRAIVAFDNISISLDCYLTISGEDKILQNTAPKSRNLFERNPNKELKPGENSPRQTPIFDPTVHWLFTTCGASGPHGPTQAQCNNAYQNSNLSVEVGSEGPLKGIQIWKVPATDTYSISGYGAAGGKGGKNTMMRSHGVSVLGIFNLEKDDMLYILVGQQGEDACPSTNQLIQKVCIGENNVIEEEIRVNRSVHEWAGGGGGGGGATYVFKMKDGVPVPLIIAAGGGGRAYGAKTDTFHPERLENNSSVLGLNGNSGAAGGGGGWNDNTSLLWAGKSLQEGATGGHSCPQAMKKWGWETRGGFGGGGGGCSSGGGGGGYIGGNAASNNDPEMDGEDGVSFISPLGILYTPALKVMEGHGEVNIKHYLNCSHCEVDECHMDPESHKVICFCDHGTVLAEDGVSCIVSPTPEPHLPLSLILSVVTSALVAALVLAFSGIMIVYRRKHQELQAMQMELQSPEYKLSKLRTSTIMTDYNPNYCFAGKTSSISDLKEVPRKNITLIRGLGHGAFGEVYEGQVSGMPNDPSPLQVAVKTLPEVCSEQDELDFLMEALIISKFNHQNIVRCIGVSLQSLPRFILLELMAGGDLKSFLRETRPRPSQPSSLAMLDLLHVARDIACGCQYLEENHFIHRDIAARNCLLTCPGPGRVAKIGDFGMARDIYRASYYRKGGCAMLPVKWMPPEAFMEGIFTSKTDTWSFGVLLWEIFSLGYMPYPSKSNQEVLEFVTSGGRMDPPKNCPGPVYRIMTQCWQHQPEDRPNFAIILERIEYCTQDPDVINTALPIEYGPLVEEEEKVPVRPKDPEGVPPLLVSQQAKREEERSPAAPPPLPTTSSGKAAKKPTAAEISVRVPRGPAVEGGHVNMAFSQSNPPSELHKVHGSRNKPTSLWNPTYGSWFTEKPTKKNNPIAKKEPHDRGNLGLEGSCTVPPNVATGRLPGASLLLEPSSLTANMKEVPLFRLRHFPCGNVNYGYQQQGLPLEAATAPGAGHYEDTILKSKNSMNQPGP
Procedure: (§3) A proprietary radiometric protein kinase assay (33PanQuinase® Activity Assay) developed by ProQuinase GmbH (Freiburg, Germany) was used for measuring the kinase activity of selected protein kinases. All assays were performed in FlashPlates™ wells 96 Perkin Elmer (Boston, Mass., USA) in a reaction volume of 50 μl. The reaction mixture was obtained in 4 steps in the following order: • 1. 10 μl of a solution of non-radioactive ATP in water; • 2. 25 μl of assay buffer/[γ-^33P]-ATP mixture • 3. 5 μl of test sample in 10% DMSO • 4. 10 μl of enzyme/substrate mixture
(§4) All protein kinases provided by ProQinase were expressed in Sf9 insect cells or in E. coli as recombinant GST-fusion proteins or His-tagged proteins, either as full-length or enzymatically active fragments. […] Kinases from external vendors (CAR=Carna Biosciences Inc.; INV=Life Technologies (Invitrogen Corporation); MIL=Merck-Millipore (Millipore Corporation), were expressed, purified and quality-controlled by virtue of the vendors readings.
(§5) A stock solution of compound of formula (I) was diluted to 5×10-04M/100% DMSO. […] Incorporation of 33Pi (counting of “cpm”) was determined with a microplate scintillation counter (Microbeta, Wallac). […]
(§6) Based on each 10 corresponding residual activities, IC50 values were calculated using Prism 5.04 for Windows (Graphpad, San Diego, Calif.). […]

[3] = target: T2, BaF3 cell line transfected with the oncogenic fusion protein NPM-ALK and expressing the mutation L1196M (Homo sapiens, UniProt Q9UM73, L1196M, cells depend on it); experiment: Tritiated thymidine uptake cell proliferation assay, BaF3 NPM-ALK L1196M; format: cell-based, murine
T2 construct: fused on or other part: P06748 (Nucleophosmin)
T2 sequence (Q9UM73 whole entry L1196M, the tested form may be a part): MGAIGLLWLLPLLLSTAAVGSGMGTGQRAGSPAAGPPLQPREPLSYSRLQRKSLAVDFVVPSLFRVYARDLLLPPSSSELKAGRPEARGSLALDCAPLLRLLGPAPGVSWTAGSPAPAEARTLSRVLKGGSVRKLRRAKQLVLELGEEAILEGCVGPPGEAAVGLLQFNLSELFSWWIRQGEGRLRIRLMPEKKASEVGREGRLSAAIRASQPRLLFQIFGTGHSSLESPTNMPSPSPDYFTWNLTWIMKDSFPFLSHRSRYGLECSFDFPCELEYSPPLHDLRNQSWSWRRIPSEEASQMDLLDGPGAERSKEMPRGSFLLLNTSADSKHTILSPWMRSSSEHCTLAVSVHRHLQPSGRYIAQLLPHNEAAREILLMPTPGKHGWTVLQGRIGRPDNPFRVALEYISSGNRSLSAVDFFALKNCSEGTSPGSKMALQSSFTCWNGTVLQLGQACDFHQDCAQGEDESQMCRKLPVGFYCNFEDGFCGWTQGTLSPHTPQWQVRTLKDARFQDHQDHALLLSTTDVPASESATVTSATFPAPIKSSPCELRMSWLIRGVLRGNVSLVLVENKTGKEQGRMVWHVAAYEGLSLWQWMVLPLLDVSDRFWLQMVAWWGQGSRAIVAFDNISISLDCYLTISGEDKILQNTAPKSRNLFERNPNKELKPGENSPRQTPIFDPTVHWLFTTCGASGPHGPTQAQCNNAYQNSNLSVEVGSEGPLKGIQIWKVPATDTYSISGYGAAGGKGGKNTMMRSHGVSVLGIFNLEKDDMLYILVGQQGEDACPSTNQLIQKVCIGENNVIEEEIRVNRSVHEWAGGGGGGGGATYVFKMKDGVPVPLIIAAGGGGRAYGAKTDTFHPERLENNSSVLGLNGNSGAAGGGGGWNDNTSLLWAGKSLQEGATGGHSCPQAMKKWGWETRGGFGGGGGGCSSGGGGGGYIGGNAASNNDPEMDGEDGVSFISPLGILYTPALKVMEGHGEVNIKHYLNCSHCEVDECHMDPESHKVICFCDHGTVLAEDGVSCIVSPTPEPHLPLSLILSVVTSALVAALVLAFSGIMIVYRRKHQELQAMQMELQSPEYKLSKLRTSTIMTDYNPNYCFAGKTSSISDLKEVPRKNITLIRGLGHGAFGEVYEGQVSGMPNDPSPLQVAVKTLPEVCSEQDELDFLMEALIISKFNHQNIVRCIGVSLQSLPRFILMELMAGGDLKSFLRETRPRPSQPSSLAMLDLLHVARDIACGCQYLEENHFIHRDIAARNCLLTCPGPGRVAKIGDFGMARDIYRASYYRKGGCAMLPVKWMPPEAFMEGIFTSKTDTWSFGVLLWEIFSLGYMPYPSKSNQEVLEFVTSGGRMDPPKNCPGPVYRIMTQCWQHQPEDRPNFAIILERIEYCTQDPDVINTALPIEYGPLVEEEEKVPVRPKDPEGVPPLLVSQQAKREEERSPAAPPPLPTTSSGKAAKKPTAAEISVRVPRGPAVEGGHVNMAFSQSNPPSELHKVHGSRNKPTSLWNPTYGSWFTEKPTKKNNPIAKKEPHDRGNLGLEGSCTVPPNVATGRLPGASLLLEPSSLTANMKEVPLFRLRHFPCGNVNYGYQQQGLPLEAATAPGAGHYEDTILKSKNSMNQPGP
Procedure: as §1, §2
In Table 2 are listed results for selected examples of compounds of the invention, reported as percentage of inhibition of cell proliferation at 200 nM, obtained from cellular assays in BaF3 cell line transfected with the oncogenic fusion protein NPM-ALK and expressing the mutation L1196M.
In Table 3 are listed averaged IC50 values of cell proliferation inhibition for selected examples of compounds of the present invention, obtained from cellular assays in BaF3 cell line transfected with the oncogenic fusion protein NPM-ALK and expressing the mutation L1196M. The letter “A” designates an IC50 value between 1 nM and 50 nM, the letter “B” designates an IC50 value between 50 nM and 100 nM, the letter “C” designates an IC50 value between 100 and 500 nM.

[4] = target: T3, TRK-B (Homo sapiens, UniProt Q16620); experiment: Radiometric protein kinase assay (33PanQuinase Activity Assay), TRK-B; format: biochemical; details: ATP 0.3 μM
T3 construct: either as full-length or enzymatically active fragments; purchased ProQinase GmbH (Freiburg, Germany)
T3 sequence (Q16620 32-822): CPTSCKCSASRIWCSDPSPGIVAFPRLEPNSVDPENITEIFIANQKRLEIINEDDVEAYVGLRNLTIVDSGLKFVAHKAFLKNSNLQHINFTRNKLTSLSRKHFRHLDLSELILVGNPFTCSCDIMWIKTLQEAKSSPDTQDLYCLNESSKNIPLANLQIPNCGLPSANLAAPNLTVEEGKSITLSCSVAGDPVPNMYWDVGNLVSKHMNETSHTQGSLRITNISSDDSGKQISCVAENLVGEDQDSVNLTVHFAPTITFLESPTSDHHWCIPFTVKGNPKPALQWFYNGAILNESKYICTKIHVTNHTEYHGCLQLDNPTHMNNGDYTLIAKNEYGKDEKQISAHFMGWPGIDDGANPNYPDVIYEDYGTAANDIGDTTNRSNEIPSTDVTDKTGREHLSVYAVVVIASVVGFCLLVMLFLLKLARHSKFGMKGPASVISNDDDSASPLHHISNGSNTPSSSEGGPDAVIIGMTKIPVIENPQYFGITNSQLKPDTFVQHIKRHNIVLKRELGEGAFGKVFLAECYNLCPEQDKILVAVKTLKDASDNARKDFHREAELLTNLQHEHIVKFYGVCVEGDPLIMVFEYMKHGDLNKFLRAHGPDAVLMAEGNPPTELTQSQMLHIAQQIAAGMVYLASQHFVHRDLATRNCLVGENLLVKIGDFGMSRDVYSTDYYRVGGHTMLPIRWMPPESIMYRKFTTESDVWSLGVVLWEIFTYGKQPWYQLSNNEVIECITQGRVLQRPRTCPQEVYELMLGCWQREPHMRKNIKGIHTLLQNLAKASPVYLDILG
Procedure: as §3, §4, §5, §6

[5] = system: ALK-negative HL60 cells; experiment: Tritiated thymidine uptake cell proliferation assay, HL60 (ALK-negative control); format: cell-based; details: Homo sapiens, HL-60; cell line HL60, ALK negative control; read-out: IC50 of cellular proliferation, HL60
Procedure: as §1, §2
Potentially toxic effects were assessed using parent untransformed BaF3 cells or ALK negative HL60 cells. […]

## CN1CCN(c2ccc(C(=O)Nc3n[nH]c4cc(-c5ccc(O)cc5)c(Cc5cc(F)cc(F)c5)cc34)c(NC3CCOCC3)c2)CC1 [Example 3, N-[5-[(3,5-difluorophenyl)methyl]-6-(4-hydroxyphenyl)-1H-indazol-3-yl]-4-(4-methylpiperazin-1-yl)-2-(tetrahydropyran-4-ylamino)benzamide]
[1]
  pIC50: 7.28
[2]
  pIC50: 7.54
[3]; averaged IC50 values of cell proliferation inhibition, class letters, read-out: IC50 BaF3 NPM-ALK L1196M cells
  GI50: 1 to 50 nM
[3]; cell line BaF3 NPM-ALK L1196M, read-out: IC50 of cellular proliferation, BaF3 NPM-ALK L1196M
  GI50: 6 nM
[3]; percentage of inhibition of cell proliferation at 200 nM
  % Inhibition BaF3 NPM-ALK L1196M cells: 83%
[4]
  pIC50: 7.06
[5]
  pIC50: 4.77
